Measurements reported in ChEMBL document CHEMBL1201862, “PubChem BioAssay data set” (2004).
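1) Cells in 96-well plates. 2) Compound, 48 h, 5 concentrations. 3) Linear interpolation between surrounding doses. 4) Unreached endpoint = highest concentration. At the GI50, growth is halved.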 The source made the active and inactive calls. Cut-off read from the data, not from the text of the source: active = GI50 up to about 1.1 µM and inactive = higher.

Assays:
Experiment in all cases: NCI anticancer screen, dose series, 48 h
NCI-H522 = test system: NCI-H522
MDA-MB-231 = test system: MDA-MB-231
MOLT-4 = test system: MOLT-4
EKVX = test system: EKVX
786-0 = test system: 786-0
T47D = test system: T47D
IGROV-1 = test system: IGROV-1
KM12 = test system: KM12
MDA-N = test system: MDA-N
HT-29 = test system: HT-29
COLO 205 = test system: COLO 205
TK-10 = test system: TK-10
SF-268 = test system: SF-268
SN12C = test system: SN12C
HOP-62 = test system: HOP-62
Malme-3M = test system: Malme-3M
SF-295 = test system: SF-295
UACC-257 = test system: UACC-257
UACC-62 = test system: UACC-62
A498 = test system: A498
HCC 2998 = test system: HCC 2998
RXF 393 = test system: RXF 393
HOP-92 = test system: HOP-92
NCI-H23 = test system: NCI-H23
BT-549 = test system: BT-549
NCI-H460 = test system: NCI-H460
K562 = test system: K562
HCT-116 = test system: HCT-116
PC-3 = test system: PC-3
OVCAR-5 = test system: OVCAR-5
MCF7 = test system: MCF7
NCI-H226 = test system: NCI-H226
NCI/ADR-RES = test system: NCI/ADR-RES
ACHN = test system: ACHN
U-251 = test system: U-251
CCRF-CEM = test system: CCRF-CEM
OVCAR-3 = test system: OVCAR-3
MDA-MB-435 = test system: MDA-MB-435
SNB-75 = test system: SNB-75
OVCAR-8 = test system: OVCAR-8
SW-620 = test system: SW-620
HCT-15 = test system: HCT-15
M14 = test system: M14
SK-OV-3 = test system: SK-OV-3
CAKI-1 = test system: CAKI-1
OVCAR-4 = test system: OVCAR-4
SK-MEL-5 = test system: SK-MEL-5
HL-60 = test system: HL-60
SF-539 = test system: SF-539
UO-31 = test system: UO-31
RPMI-8226 = test system: RPMI-8226
SR = test system: SR
SK-MEL-28 = test system: SK-MEL-28
SNB-19 = test system: SNB-19
DU-145 = test system: DU-145
LOX IMVI = test system: LOX IMVI

For `C[Si](C)(OCCS(=O)(=O)O)C1S(=O)(=O)OCCOS1(=O)=O`, the GI50 (NCI-H522) was 68.1 µM (inactive), the GI50 (MDA-MB-231) was > 100 µM (inactive) and the GI50 (MOLT-4) was 30.3 µM (inactive). For the same compound, the GI50 (EKVX) was > 100 µM (inactive), the GI50 (786-0) was 36.1 µM (inactive) and the GI50 (T47D) was 36.6 µM (inactive). The GI50 (IGROV-1) was > 100 µM (inactive), the GI50 (KM12) was 91.6 µM (inactive) and the GI50 (MDA-N) was 92 µM (inactive). For the same compound, the GI50 (HT-29) was > 100 µM (inactive), the GI50 (COLO 205) was > 100 µM (inactive) and the GI50 (TK-10) was > 100 µM (inactive). For the same compound, the GI50 (SF-268) was 24 µM (inactive), the GI50 (SN12C) was > 100 µM (inactive) and the GI50 (HOP-62) was 56.4 µM (inactive). The GI50 (Malme-3M) was > 100 µM (inactive), the GI50 (SF-295) was 4.86 µM (inactive) and the GI50 (UACC-257) was > 100 µM (inactive). For the same compound, the GI50 (UACC-62) was 13.7 µM (inactive), the GI50 (A498) was > 100 µM (inactive) and the GI50 (HCC 2998) was 35.5 µM (inactive). For the same compound, the GI50 (RXF 393) was 21.7 µM (inactive), the GI50 (HOP-92) was 23.8 µM (inactive) and the GI50 (NCI-H23) was 53.8 µM (inactive). For the same compound, the GI50 (BT-549) was 27.4 µM (inactive), the GI50 (NCI-H460) was 31.7 µM (inactive) and the GI50 (K562) was 70 µM (inactive). For the same compound, the GI50 (HCT-116) was 67.1 µM (inactive), the GI50 (PC-3) was 93.5 µM (inactive) and the GI50 (OVCAR-5) was > 100 µM (inactive). For the same compound, the GI50 (MCF7) was 36.6 µM (inactive), the GI50 (NCI-H226) was 64.9 µM (inactive) and the GI50 (NCI/ADR-RES) was 45.4 µM (inactive). For the same compound, the GI50 (ACHN) was 35.9 µM (inactive), the GI50 (U-251) was 21.8 µM (inactive) and the GI50 (CCRF-CEM) was 58.1 µM (inactive). The GI50 (OVCAR-3) was > 100 µM (inactive), the GI50 (MDA-MB-435) was 43.5 µM (inactive) and the GI50 (SNB-75) was 20.5 µM (inactive). The GI50 (OVCAR-8) was 86.3 µM (inactive), the GI50 (SW-620) was 0.495 µM (active) and the GI50 (HCT-15) was 67.5 µM. For the same compound, the GI50 (M14) was 48.2 µM (inactive), the GI50 (SK-OV-3) was 79.4 µM (inactive) and the GI50 (CAKI-1) was 27.7 µM (inactive). The GI50 (OVCAR-4) was > 100 µM (inactive), the GI50 (SK-MEL-5) was 49.5 µM (inactive) and the GI50 (HL-60) was 27.5 µM (inactive). The GI50 (SF-539) was 23.9 µM (inactive), the GI50 (UO-31) was 58.6 µM (inactive) and the GI50 (RPMI-8226) was > 100 µM (inactive). For the same compound, the GI50 (SR) was 38.4 µM (inactive), the GI50 (SK-MEL-28) was > 100 µM (inactive) and the GI50 (SNB-19) was 36.8 µM (inactive). The GI50 (DU-145) was 80.9 µM (inactive) and the GI50 (LOX IMVI) was 21.2 µM (inactive).
